Measured values from patent US10875837B2, “Inhibitors of the fibroblast growth factor receptor” (BLUEPRINT MEDICINES CORPORATION, priority 2013, dated 2020).

Target: T1, wild type FGFR-4 (Homo sapiens, UniProt P22455)
T1 construct: purchased Carna Biosciences, Inc
Experiment: FGFR-4 wild type assay at Km (Caliper electrophoretic mobility shift)
Type: biochemical
Details: wild type FGFR-4, 400 uM ATP, 25 C, 90 minutes; read-out: INH-FGFR4
Description: Biochemical Activity Assessment In order to assess the activity of chemical compounds against the relevant kinase of interest, the Caliper LifeSciences electrophoretic mobility shift technology platform is utilized. Fluorescently labeled substrate peptide is incubated in the presence dosed levels of compounds, a set concentration of kinase and of ATP, so that a reflective proportion of the peptide is phosphorylated. At the end of the reaction, the mix of phosphorylated (product) and non-phosphorylated (substrate) peptides are passed through the microfluidic system of the Caliper LabChip® EZ Reader II, under an applied potential difference. The presence of the phosphate group on the product peptide provides a difference in mass and charge between the product peptide and the substrate peptide, resulting in a separation of the substrate and product pools in the sample. As the pools pass the LEDS within the instrument, these pools are detected and resolved as separate peaks. The ratio between these peaks therefore reflects the activity of the chemical matter at that concentration in that well, under those conditions.
FGFR-4 wild type assay at Km: In each well of a 384-well plate, 0.5 ng/ul of wild type FGFR-4 (Carna Biosciences, Inc.) was incubated in a total of 12.5 ul of buffer (100 mM HEPES pH 7.5, 0.015% Brij 35, 10 mM MgCl2, 1 mM DTT) with 1 uM CSKtide (5-FAM-KKKKEEIYFFFG-NH2) and 400 uM ATP at 25 C for 90 minutes in the presence or absence of a dosed concentration series of compound (1% DMSO final concentration). The reaction was stopped by the addition of 70 ul of Stop buffer (100 mM HEPES pH 7.5, 0.015% Brij 35, 35 mM EDTA and 0.2% of Coating Reagent 3 (Caliper Lifesciences)). The plate was then read on a Caliper LabChip® EZ Reader II (protocol settings: −1.9 psi, upstream voltage −700, downstream voltage −3000, post sample sip 35 s).

T1 sequence (P22455 22-802): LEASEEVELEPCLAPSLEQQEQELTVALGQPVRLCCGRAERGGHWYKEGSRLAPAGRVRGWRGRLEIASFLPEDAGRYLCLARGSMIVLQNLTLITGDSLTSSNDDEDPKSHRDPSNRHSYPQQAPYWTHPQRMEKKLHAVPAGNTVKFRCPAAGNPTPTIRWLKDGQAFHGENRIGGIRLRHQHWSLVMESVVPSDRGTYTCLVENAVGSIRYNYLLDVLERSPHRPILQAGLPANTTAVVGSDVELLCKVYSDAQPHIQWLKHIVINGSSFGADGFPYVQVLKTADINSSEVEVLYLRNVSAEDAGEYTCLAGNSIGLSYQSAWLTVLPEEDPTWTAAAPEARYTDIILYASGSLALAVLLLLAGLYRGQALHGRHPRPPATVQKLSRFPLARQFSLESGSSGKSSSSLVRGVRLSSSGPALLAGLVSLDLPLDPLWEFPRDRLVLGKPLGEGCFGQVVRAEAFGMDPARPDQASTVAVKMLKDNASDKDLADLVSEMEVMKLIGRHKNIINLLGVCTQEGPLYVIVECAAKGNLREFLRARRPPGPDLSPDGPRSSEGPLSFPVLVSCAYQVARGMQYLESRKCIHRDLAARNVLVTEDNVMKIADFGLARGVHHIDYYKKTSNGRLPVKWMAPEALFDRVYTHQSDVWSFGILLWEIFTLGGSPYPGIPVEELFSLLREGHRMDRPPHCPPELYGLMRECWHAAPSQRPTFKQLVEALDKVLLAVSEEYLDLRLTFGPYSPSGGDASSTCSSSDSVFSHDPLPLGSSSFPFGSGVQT

Compound	IC50
C=CC(=O)N[C@H]1CC[C@H](C(N)=O)C[C@H]1Nc1ncc2cc(-c3c(Cl)c(OC)cc(OC)c3Cl)ccc2n1 (racemic) [Compound 72]	0.1 to 1 µM
C=CC(=O)N[C@H]1C[C@H](C(=O)N(C)C)CC[C@H]1Nc1ncc2cc(-c3c(Cl)c(OC)cc(OC)c3Cl)ccc2n1 (racemic) [Compound 87]	0.1 to 1 µM
C#CC(=O)N[C@H]1CCC[C@H]1Nc1ncc2cc(-c3cccnc3)ccc2n1 [Compound 1]	> 1 µM
C#CC(=O)N[C@H]1CCC[C@H]1Nc1ncc2cc(-c3c(F)ccc(OC)c3F)ccc2n1 [Compound 2, N-((1S,2R)-2-((6-(2,6-difluoro-3-methoxyphenyl)quinazolin-2-yl)amino)cyclopentyl)propiolamide]	0.01 to 0.1 µM
C#CC(=O)N[C@H]1CCC[C@H]1Nc1ncc2cc(-c3cc(C(N)=O)ccc3Cl)ccc2n1 [Compound 3]	0.1 to 1 µM
C#CC(=O)N[C@H]1CCC[C@H]1Nc1ncc2cc(-c3c(Cl)ccc(OC)c3F)ccc2n1 [Compound 4]	0.01 to 0.1 µM
C#CC(=O)N[C@H]1CCC[C@H]1Nc1ncc2cc(-c3c(Cl)ccc(OC)c3Cl)ccc2n1 [Compound 5]	0.01 to 0.1 µM
C#CC(=O)N[C@H]1CCC[C@H]1Nc1ncc2cc(-c3c(F)ccc(OCC)c3Cl)ccc2n1 [Compound 6, N-((1S,2R)-2-((6-(2-chloro-3-ethoxy-6-fluorophenyl)quinazolin-2-yl)amino)cyclopentyl)propiolamide]	0.1 to 1 µM
C#CC(=O)N[C@H]1CCC[C@H]1Nc1ncc2cc(-c3cc(C(=O)NC4CC4)ccc3C)ccc2n1 [Compound 7]	0.01 to 0.1 µM
C=CC(=O)N[C@H]1COCC1Nc1ncc2cc(-c3cc(OC)cc(OC)c3Cl)ccc2n1 (stereo partly drawn) [Compound 8]	0.01 to 0.1 µM
C=CC(=O)N[C@H]1CCC[C@H]1Nc1ncc2cc(-c3cc(C(=O)NC4CC4)ccc3C)ccc2n1 [Compound 9]	0.1 to 1 µM
C#CC(=O)N[C@H]1CCC[C@H]1Nc1ncc2cc(-c3cc(OC)cc(C(=O)NCC)c3)ccc2n1 [Compound 10]	> 1 µM
C#CC(=O)N[C@H]1CCC[C@H]1Nc1ncc2cc(-c3cc(C(=O)NCC)ccc3Cl)ccc2n1 [Compound 11]	0.01 to 0.1 µM
C#CC(=O)N[C@H]1CCC[C@H]1Nc1ncc2cc(-c3cc(C(=O)NOC)ccc3Cl)ccc2n1 [Compound 12]	< 0.01 µM
C#CC(=O)NC1CCC1Nc1ncc2cc(-c3c(Cl)c(OC)cc(OC)c3Cl)ccc2n1 (stereo not drawn) [Compound 14]	0.01 to 0.1 µM
C=CC(=O)NC1CCC1Nc1ncc2cc(-c3c(Cl)c(OC)cc(OC)c3Cl)ccc2n1 (stereo not drawn) [Compound 15]	0.1 to 1 µM
C#CC(=O)N[C@H]1CCC[C@H]1Nc1ncc2cc(-c3cc(C(=O)NC4CC4)ccc3Cl)ccc2n1 [Compound 16]	0.01 to 0.1 µM
CCC(=O)N[C@H]1CCC[C@H]1Nc1ncc2cc(-c3cc(C(=O)NC4CC4)ccc3Cl)ccc2n1 [Compound 17]	> 1 µM
C#CC(=O)N[C@H]1CCC[C@H]1Nc1ncc2cc(-c3cc(S(=O)(=O)N(C)C)ccc3C)ccc2n1 [Compound 18]	> 1 µM
C#CC(=O)N[C@H]1CCC[C@H]1Nc1ncc2cc(-c3cc(C(=O)NOC)c(F)cc3Cl)ccc2n1 [Compound 19]	0.01 to 0.1 µM
C#CC(=O)N[C@H]1CCC[C@H]1Nc1ncc2cc(-c3c(Cl)c(OC)cc(OC)c3Cl)ccc2n1 [Compound 20]	< 0.01 µM
C=CC(=O)N[C@@H]1CCC[C@H]1Nc1ncc2cc(-c3c(Cl)c(OC)cc(OC)c3Cl)ccc2n1 [Compound 21]	> 1 µM
C=CC(=O)N[C@H]1CCC[C@@H]1Nc1ncc2cc(-c3c(Cl)c(OC)cc(OC)c3Cl)ccc2n1 [Compound 22]	0.1 to 1 µM
C=CC(=O)N[C@@H]1CCC[C@@H]1Nc1ncc2cc(-c3c(Cl)c(OC)cc(OC)c3Cl)ccc2n1 [Compound 23]	0.1 to 1 µM

Compound	IC50
C=CC(=O)NC1CNCC1Nc1ncc2cc(-c3c(Cl)c(OC)cc(OC)c3Cl)ccc2n1 (stereo not drawn) [Compound 25]	0.01 to 0.1 µM
C#CC(=O)N[C@H]1CCC[C@H]1Nc1ncc2cc(-c3cc(C(=O)NC4CC4)c(F)cc3Cl)ccc2n1 [Compound 30]	0.01 to 0.1 µM
C#CC(=O)N[C@H]1CCCC[C@H]1Nc1ncc2cc(-c3c(Cl)c(OC)cc(OC)c3Cl)ccc2n1 [Compound 31]	< 0.01 µM
C=CC(=O)N[C@H]1CC(=O)C[C@H]1Nc1ncc2cc(-c3c(Cl)c(OC)cc(OC)c3Cl)ccc2n1 [Compound 33]	0.01 to 0.1 µM
C=CC(=O)N[C@@H]1CCCC[C@@H]1Nc1ncc2cc(-c3c(Cl)c(OC)cc(OC)c3Cl)ccc2n1 [Compound 35]	> 1 µM
C=CC(=O)N[C@H]1CCCC[C@@H]1Nc1ncc2cc(-c3c(Cl)c(OC)cc(OC)c3Cl)ccc2n1 [Compound 36, N-((1S,2S)-2-((6-(2,6-dichloro-3,5-dimethoxyphenyl)quinazolin-2-yl)amino)cyclohexyl)acrylamide]	> 1 µM
C=CC(=O)N[C@@H]1CCCC[C@H]1Nc1ncc2cc(-c3c(Cl)c(OC)cc(OC)c3Cl)ccc2n1 [Compound 37]	> 1 µM
C=CC(=O)N[C@H]1CCNC[C@H]1Nc1ncc2cc(-c3c(Cl)c(OC)cc(OC)c3Cl)ccc2n1 [Compound 38]	0.1 to 1 µM
C=CC(=O)N[C@@H]1CCNC[C@@H]1Nc1ncc2cc(-c3c(Cl)c(OC)cc(OC)c3Cl)ccc2n1 [Compound 39]	> 1 µM
C=CC(=O)N[C@H]1C[C@@H](O)C[C@H]1Nc1ncc2cc(-c3c(Cl)c(OC)cc(OC)c3Cl)ccc2n1 [Compound 42]	0.01 to 0.1 µM
C=CC(=O)N[C@@H]1CCOC[C@@H]1Nc1ncc2cc(-c3c(Cl)c(OC)cc(OC)c3Cl)ccc2n1 [Compound 43]	0.1 to 1 µM
CC#CC(=O)N[C@H]1CCCC[C@H]1Nc1ncc2cc(-c3c(Cl)c(OC)cc(OC)c3Cl)ccc2n1 [Compound 47]	> 1 µM
C#CC(=O)N[C@H]1CCC[C@H]1Nc1ncc2cc(-c3c(Cl)c(OC)cc(OC)c3Cl)cc(OC)c2n1 [Compound 48]	< 0.01 µM
C#CC(=O)N[C@H]1CCC[C@H]1Nc1cc2c(cn1)cc(-c1c(Cl)c(OC)cc(OC)c1Cl)c(=O)n2C [Compound 49]	< 0.01 µM
C=CC(=O)N[C@H]1CCOC[C@H]1Nc1ncc2c(F)c(-c3c(Cl)c(OC)cc(OC)c3Cl)ccc2n1 [Compound 50]	0.01 to 0.1 µM
C=CC(=O)N[C@H]1CCC[C@H]1Nc1ncc2cc(-c3c(Cl)c(OC)cc(OC)c3Cl)cc(Cl)c2n1 [Compound 53]	0.01 to 0.1 µM
C=CC(=O)N[C@@H]1CN(C(C)=O)C[C@@H]1Nc1ncc2cc(-c3c(Cl)c(OC)cc(OC)c3Cl)ccc2n1 [Compound 57]	0.1 to 1 µM
C=CC(=O)N[C@@H]1CC(C)(C)OC[C@@H]1Nc1ncc2cc(-c3c(Cl)c(OC)cc(OC)c3Cl)ccc2n1 [Compound 59]	0.1 to 1 µM
C=CC(=O)N[C@H]1CC(C)(C)OC[C@H]1Nc1ncc2cc(-c3c(Cl)c(OC)cc(OC)c3Cl)ccc2n1 [Compound 60]	> 1 µM
C#CC(=O)N[C@H]1Cc2ccccc2[C@H]1Nc1ncc2cc(-c3c(Cl)c(OC)cc(OC)c3Cl)ccc2n1 [Compound 65]	0.1 to 1 µM
C=CS(=O)(=O)N[C@H]1CCCC[C@H]1Nc1ncc2cc(-c3c(Cl)c(OC)cc(OC)c3Cl)ccc2n1 [Compound 66]	0.01 to 0.1 µM
C=CC(=O)N[C@H]1CCOC[C@H]1Nc1ncc2cc(-c3c(Cl)c(OC)cc(OC)c3Cl)cc(Cl)c2n1 [Compound 67]	< 0.01 µM
C#CC(=O)N[C@H]1CCCC[C@H]1Nc1cc2c(cn1)cc(-c1c(Cl)c(OC)cc(OC)c1Cl)c(=O)n2CC [Compound 68]	< 0.01 µM
C=CC(=O)N[C@@H]1CCN(C(C)=O)C[C@@H]1Nc1ncc2cc(-c3c(Cl)c(OC)cc(OC)c3Cl)ccc2n1 [Compound 69]	0.1 to 1 µM
